Laboratory results as given in PubChem BioAssay (NCI).
Values joined by “and” are separate entries in the source; they are usually repeats but may differ in a detail not shown here. Identical values can stand only once.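 Tested at 5 concentrations; 48 h exposure; 96-well plates; endpoints linearly interpolated, else capped at highest concentration. GI50: concentration for 50% inhibition of growth. TGI: total growth inhibition.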

Tests used:
Experiment in all cases: DTP human tumour cell line panel, 48 h
SF-295 CNS = test system: SF-295 CNS
NCI-H23 lung = test system: NCI-H23 lung
A498 renal = test system: A498 renal
SK-OV-3 ovarian = test system: SK-OV-3 ovarian
OVCAR-5 ovarian = test system: OVCAR-5 ovarian
MDA-MB-231 breast = test system: MDA-MB-231 breast
K-562 leukemia = test system: K-562 leukemia
U251 CNS = test system: U251 CNS
RPMI-8226 leukemia = test system: RPMI-8226 leukemia
MOLT-4 leukemia = test system: MOLT-4 leukemia

Row | Structure (SMILES) | TGI (SF-295 CNS) | TGI (NCI-H23 lung) [µM] | TGI (A498 renal) [µM] | TGI (SK-OV-3 ovarian) [µM] | TGI (OVCAR-5 ovarian) [µM] | TGI (MDA-MB-231 breast) [µM] | TGI (K-562 leukemia) [µM] | TGI (U251 CNS) | GI50 (NCI-H23 lung) [µM] | GI50 (RPMI-8226 leukemia) | GI50 (A498 renal) [µM] | GI50 (MOLT-4 leukemia) [µM] | GI50 (OVCAR-5 ovarian) [µM] | GI50 (MDA-MB-231 breast) [µM] | GI50 (K-562 leukemia) [µM] | TGI (RPMI-8226 leukemia) [µM] | TGI (MOLT-4 leukemia) [µM] | GI50 (SF-295 CNS) [µM] | GI50 (U251 CNS) [µM] | GI50 (SK-OV-3 ovarian) [µM]
1 | COC1CC2CCC(C)[C@](O)(O2)C(=O)C(=O)N2CCCCC2C(=O)OC(C(C)CC2CCC(O)C(OC)C2)CC(=O)C(C)C=C(C)C(OC(=O)CN(C)C)C(OC)C(=O)C(C)CC(C)/C=C/C=C/C=C\1C (some centres undefined) | 20.7 µM | 24.3 | 11.9 | 20 | 26.4 | 20.4 | 13.6 | 18.2 µM | – | – | – | – | – | – | – | – | – | – | – | –
2 | Nc1ccn([C@@H]2C=C(CO)[C@@H](O)[C@H]2O)c(=O)n1 | 316 µM and > 625 µM | – | – | – | – | 500 | 335 | 500 µM and > 625 µM | 0.114 | 0.0128 µM and 0.0635 µM and 0.126 µM | 0.242 | 0.0171 | 0.13 | 0.413 | 0.0189 | – | – | – | – | –
3 | CCOC(=O)/C=C1\Nc2ccccc2-n2nnnc21 | > 100 µM | > 100 | > 100 | > 100 | > 100 | – | > 100 | 64.5 µM | – | – | – | – | – | – | – | > 100 | > 100 | – | – | –
4 | CC1C(=O)N(C)C2(CO)C(=O)O[C@H](C)C12O (some centres undefined) | > 100 µM | > 100 | – | > 100 | > 100 | – | > 100 | > 100 µM | – | – | – | – | – | – | – | > 100 | > 100 | – | – | –
5 | CC[C@H](C)C(=O)O[C@H]1CCC=C2C=C[C@H](C)C(CCC3C[C@@H](O)CC(=O)O3)[C@H]21 (some centres undefined) | > 100 µM | > 100 | 2.42 | > 100 | > 100 | 12.5 | – | > 100 µM | 3.5 | – | 0.0183 | – | 20.8 | 0.455 | – | – | > 100 | 1.58 | 1.82 | –
6 | CCC(=C(c1ccc(OCc2ccccc2)cc1)c1ccc(OCc2ccccc2)cc1)c1ccc(OC)cc1 | > 100 µM | > 100 | – | > 100 | > 100 | – | > 100 | > 100 µM | – | – | – | – | – | – | – | > 100 | > 100 | – | – | –
7 | O=C1c2ccccc2C(=O)c2nc(-c3ccccc3)c(-c3ccccc3)nc21 | > 100 µM | > 100 | > 93.6 | > 100 | > 100 | – | > 100 | > 100 µM | – | – | – | – | – | – | – | > 100 | > 100 | – | – | –
8 | C[C@]12CCC(=O)C=C1CC[C@@H]1[C@@H]2CC[C@]2(C)C(=O)/C(=C/c3cccc(OCCN4CCOCC4)c3)C[C@@H]12 | 16.6 µM | 20.6 | 36.1 | > 100 | 34 | 42.3 | 15.5 | 24.9 µM | 3.79 | – | 18.5 | – | 13.4 | 11.6 | 3.51 | – | – | 3.74 | 8.5 | 11.7
9 | CC(=O)Nc1ccc(/C=C/C(=O)c2sc(C(N)=S)nc2C)cc1 | > 100 µM | > 100 | > 100 | > 100 | > 100 | – | > 100 | > 100 µM | – | – | – | – | – | – | – | > 100 | > 100 | – | – | –
10 | Cc1ccc(C2=NO[C@@H]3C(=O)N(c4ccc(Cc5ccc(N6C(=O)[C@H]7C(c8ccc(C)cc8)=NO[C@H]7C6=O)cc5)cc4)C(=O)[C@H]23)cc1 | > 100 µM | > 100 | > 100 | > 100 | > 100 | – | > 100 | > 100 µM | – | – | – | – | – | – | – | > 100 | – | – | – | –
11 | CCCCCCCCCCCC(=O)OCC1OC(n2cc(F)c(=O)[nH]c2=O)C(N)C(O)C1O (centres undefined) | > 100 µM | > 100 | > 100 | > 100 | > 100 | – | > 100 | > 100 µM | – | – | – | – | – | – | – | > 100 | > 100 | – | – | –
12 | O=C(Cn1ccnc1[N+](=O)[O-])NCC(F)(F)C(F)(F)F | > 100 µM | > 100 | > 100 | > 100 | > 100 | > 100 | – | > 100 µM | > 100 | > 100 µM | > 100 | – | > 100 | > 100 | – | > 100 | – | > 100 | > 100 | > 100
13 | Nc1nc(N)c(-c2ccc(Cl)cc2)c(CCC(=O)Nc2cccc(C(F)(F)F)c2)n1 | > 100 µM | > 100 | > 100 | > 100 | > 100 | – | > 100 | > 100 µM | – | – | – | – | – | – | – | – | > 100 | – | – | –
14 | CN=S(=O)(C[C@]1(O)CC2OC1C1OC(C)(C)OC21)c1ccccc1 (some centres undefined) | > 100 µM | > 100 | > 100 | > 100 | > 100 | – | > 100 | > 100 µM | – | – | – | – | – | – | – | > 100 | > 100 | – | – | –
15 | Cc1c(Cl)ccc2c1NC(=O)C2(O)C1Cc2ccccc2C1=O (centres undefined) | > 100 µM | > 100 | > 100 | > 100 | > 100 | – | > 100 | > 100 µM | – | – | – | – | – | – | – | > 100 | > 100 | – | – | –
16 | COc1cc(-c2c(C)c(C)nc(OC)c2C#N)cc(OC)c1OC | > 100 µM | > 100 | > 100 | > 100 | – | – | > 100 | > 100 µM | – | – | – | – | – | – | – | > 100 | > 100 | – | – | –
17 | O=C(CC1(O)C(=O)Nc2c(Cl)cc(Cl)cc21)c1ccc2ccccc2c1 (centres undefined) | 21.3 µM | 22.3 | 24.8 | 24.6 | 30.3 | – | 18.3 | 18.7 µM | – | – | – | – | – | – | – | 29.8 | 27.8 | – | – | –
18 | Cc1cc(C)n(-c2c(O)ccc(O)c2-n2nc(C)cc2C)n1 | > 100 µM | > 100 | > 100 | > 100 | > 100 | – | > 100 | > 100 µM | – | – | – | – | – | – | – | > 100 | > 100 | – | – | –
19 | O=C(CC(=O)C(F)(F)F)c1csc2ccccc12 | 37 µM | > 100 | – | 63.6 | > 100 | – | > 100 | > 100 µM | – | – | – | – | – | – | – | 91.6 | 72.3 | – | – | –
20 | Clc1ccc2nc(CCSCCc3nc4ccc(Cl)cc4[nH]3)[nH]c2c1 | 20.2 µM | 31.3 | – | 34.2 | 25.2 | – | 38.3 | 26.8 µM | – | – | – | – | – | – | – | 13.5 | 18.1 | – | – | –
21 | O=C(NCC#CCO)C(F)(F)F | – | > 100 | > 100 | > 100 | > 100 | – | – | > 100 µM | – | – | – | – | – | – | – | – | > 100 | – | – | –
